Laboratory results taken from patent US4983582A, “Preventive and therapeutic method for hypertension” (Kao Corporation, priority 1987, dated 1991).
“Also recorded” adds a separate entry of the source.

Assays:
SHR-rat [1] = test: Example 1: systolic blood pressure of SHR-rat at tail, 3 months oral administration; type: in vivo; settings: 3 ml/day per orally, average, n = 10
Experimental: To each group comprising 10 male SHR of approx. 300 g of the body weight was per orally dosed 3 ml/day of the following aqueous solutions for 3 months;
an aqueous solution of glucose-1-phosphate calcium (2 g/100 ml) represented by the structural formula (a), and
an aqueous solution of glucose-1-phosphate calcium containing compounds of the general formulas (a) and (b) in the weight ratio of 9:1,
while to a control group was given distilled water.
The systolic blood pressure was measured at the tail of each subject, every one, two and three months of the administration period.

SHR-rat [2] = test: Example 2: systolic blood pressure in the SHR, tail artery, closed method, 15 weeks administration; type: in vivo; settings: for Systolic blood pressure in the SHR: average, n = 10
Experimental: To each group comprising 10 male SHR at the age of 9 weeks was dosed average 30 ml/day of the following aqueous solutions for 15 weeks; an aqueous solution of glucose-1-phosphate calcium (1 g/100 ml) represented by the structural formula (a), an aqueous solution of calcium lactate (0.83 g/100 ml), and an aqueous solution of hydrochlorothiazide (0.093 g/100 ml), which is one of the thiazide diuretics, while to a control group was dosed distilled water.
Systolic blood pressure was measured in a closed method in the tail artery of the subject at each time of before administration, 5 weeks of administration, and 15 weeks of administration (the measuring apparatus employed was PS-200 of Rikenkaihatsu Co.).

[3] = acute toxicity on peroral dosing to a mouse; settings: in vivo, po, perorally, read-out: peroral dose at which it exhibits an acute toxicity
[4] = Japanese Patent Publication No. 46-7599 for dental caries; cited from earlier work
[5] = 5 weeks after, average 30 ml/day, glucose-1-phosphate calcium 1 g/100 ml, calcium lactate 0.83 g/100 ml, hydrochlorothiazide 0.093 g/100 ml, control 203
[6] = 15 weeks after, average 30 ml/day, glucose-1-phosphate calcium 1 g/100 ml, calcium lactate 0.83 g/100 ml, hydrochlorothiazide 0.093 g/100 ml, control 211
[7] = before administration, control 197

| SMILES | Systolic blood pressure of SHR-rat at tail (SHR-rat [1]; 1 month, control 150) | Systolic blood pressure of SHR-rat at tail (SHR-rat [1]; 2 months, control 187) | Systolic blood pressure of SHR-rat at tail (SHR-rat [1]; 3 months, control 215) | Systolic blood pressure in the SHR (SHR-rat [2]; [5]) | Systolic blood pressure in the SHR (SHR-rat [2]; [6]) | Systolic blood pressure in the SHR (SHR-rat [2]; [7]) | reduction of the systolic blood pressure of SHR-rat compared with hydrochlorothiazide (SHR-rat [2]; SHR-rat, Table 2) | LD50 [3] [mg/kg] | physiological effects already reported [4] |
| --- | --- | --- | --- | --- | --- | --- | --- | --- | --- |
| O=P(O)(O)OC1O[C@H](CO)[C@@H](O)[C@H](O)[C@H]1O (stereo partly drawn) [Glucose-1-phosphate calcium (a), glucose-1-phosphate calcium] | 148 | 153 | 155 | 175 | 185 | 199 | – | – | – |
| NS(=O)(=O)c1cc2c(cc1Cl)NCNS2(=O)=O [Hydrochlorothiazide, hydrochlorothiazide] | – | – | – | 175 | 188 | 200 | – | – | – |
| CC(O)C(=O)O (stereo not drawn) [Calcium lactate, calcium lactate] | – | – | – | 190 | 204 | 198 | – | – | – |
| O=P(O)(O)OC1O[C@H](CO)[C@@H](O)[C@H](O)[C@H]1O (stereo partly drawn) [glucose-1-phosphate calcium] | – | – | – | – | – | – | substantially in the same extent as hydrochlorothiazide | ≥ 15000 | effect of inhibiting dental caries; also recorded: cartilage-calcification promotion effect; also recorded: fatigue-recuperation effect |
